Data: patent publication US9550796B2, “Pyrrolopyrrolone derivatives and their use as BET inhibitors” (NOVARTIS AG, priority 2013, dated 2017)

How the values were obtained:
BRD4 = BRD4 (Homo sapiens (Human), UniProt O60885); test: TR-FRET in-vitro binding assay for BRD4; conditions: 45 nM His-Brd4(44-477), acetyl-histone H4 (AcK 5, 8, 12, 16) peptide
Procedure, shortened: (§1)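 Binding is detected by TR-FRET following incubation for 35 minutes at 30° C.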

BRD3 = BRD3 (Homo sapiens (Human), UniProt Q15059); test: TR-FRET in-vitro binding assay for BRD3; conditions: 45 nM His-Brd3(20-477), acetyl-histone H4 (AcK 5, 8, 12, 16) peptide
Chain of BRD3 (Q15059 20-477): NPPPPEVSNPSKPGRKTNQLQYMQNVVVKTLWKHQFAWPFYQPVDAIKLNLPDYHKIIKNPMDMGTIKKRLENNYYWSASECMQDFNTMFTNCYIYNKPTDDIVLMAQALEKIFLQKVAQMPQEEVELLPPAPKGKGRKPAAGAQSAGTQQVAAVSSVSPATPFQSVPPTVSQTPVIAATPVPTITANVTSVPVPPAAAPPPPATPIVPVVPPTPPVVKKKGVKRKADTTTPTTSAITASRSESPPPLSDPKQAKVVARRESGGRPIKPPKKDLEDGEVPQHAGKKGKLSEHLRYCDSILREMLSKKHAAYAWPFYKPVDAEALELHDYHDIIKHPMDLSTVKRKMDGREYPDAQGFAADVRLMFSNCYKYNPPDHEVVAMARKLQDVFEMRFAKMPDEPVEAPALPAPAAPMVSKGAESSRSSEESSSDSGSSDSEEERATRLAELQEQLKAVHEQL
Procedure, shortened: as §1

CREBBP = CREBBP (Homo sapiens (Human), UniProt Q92793); test: AlphaScreen in-vitro binding assay for CREBBP; conditions: 324 nM His-CREBBP (1081-1197), acetyl-histone H4 (AcK 5, 8, 12) peptide
Chain of CREBBP (Q92793 1081-1197): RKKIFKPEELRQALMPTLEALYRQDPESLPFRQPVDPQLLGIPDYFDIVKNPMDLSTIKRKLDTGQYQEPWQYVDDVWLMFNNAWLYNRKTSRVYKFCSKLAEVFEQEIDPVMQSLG
Procedure, shortened: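 IC50 values were derived by non-linear regression of percent inhibition across 8 compound concentrations. Protein was His-tagged CREBBP bromodomain (1081-1197), peptide acetyl-histone H4 (AcK 5, 8, 12), in HEPES pH 7.5 buffer. Read-out was AlphaScreen with Ni-chelate acceptor and streptavidin donor beads, 35 min at 30° C then 60 min at RT.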

MV-4-11 = test: Cell growth inhibition assay (CellTiter-Glo), MV-4-11; type: cell-based, human; conditions: MV-4-11 cells, 4 days; for GI50: Homo sapiens, MV4-11, 96 h, half-maximal growth inhibition; for MV-4-11 TGI: total growth inhibition
Procedure, shortened: (§2)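 Cells were treated with 3-fold serial dilutions of compound starting at 10 μM for 4 days at 37 °C and 5% CO2, and viability was then read as ATP by CellTiter-Glo luminescence. Signals were background- and day 0-corrected against 0.1% DMSO vehicle (100%) and medium (−100%). IC50 and TGI came from four-parameter fits.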

THP-1 = test: Cell growth inhibition assay (CellTiter-Glo), THP-1; type: cell-based, human; conditions: THP-1 cells, 4 days; for GI50: Homo sapiens, 96 h, half-maximal growth inhibition; for THP-1 TGI: total growth inhibition
Procedure, shortened: as §2

K-562 = test: Cell growth inhibition assay (CellTiter-Glo), K-562; type: cell-based, human; conditions: K-562 cells, 4 days; for GI50: Homo sapiens, K562, 96 h, half-maximal growth inhibition; for K-562 TGI: total growth inhibition
Procedure, shortened: as §2

Row | IC50 (BRD4) | IC50 (BRD3) | IC50 (CREBBP) | GI50 (MV-4-11) | GI50 (THP-1) | GI50 (K-562) | Compound | MV-4-11 TGI (MV-4-11) | THP-1 TGI (THP-1) | K-562 TGI (K-562)
1 | 15 nM | 15 nM | 13700 nM | 12.1 nM | 15 nM | 115 nM | CCOC(=O)n1cc(C2CC2)c2c1C(c1ccc(Cl)cc1)N(c1cc(C)c3nnc(C)n3c1)C2=O (stereo not drawn) [Example 125, Ethyl 6-(4-chlorophenyl)-3-cyclopropyl-5-(3,8-dimethyl-[1,2,4]triazolo[4,3-a]pyridin-6-yl)-4-oxo-5,6-dihydropyrrolo[3,4-b]pyrrole-1(4H)-carboxylate] | 19.25 nM | 28.4 nM | >10000 nM
2 | 43 nM | 48 nM | 12900 nM | 74.6 nM | 113 nM | 628 nM | Cc1cn(C2CCN(C)C2=O)c2c1C(=O)N(c1cc(C)c3nnc(C)n3c1)C2c1ccc(Cl)cc1 (stereo not drawn) [Example 126, 6-(4-chlorophenyl)-5-(3,8-dimethyl-[1,2,4]triazolo[4,3-a]pyridin-6-yl)-3-methyl-1-(1-methyl-2-oxopyrrolidin-3-yl)-5,6-dihydropyrrolo[3,4-b]pyrrol-4(1H)-one] | 180 nM | 315.5 nM | >10000 nM
3 | 85 nM | 81 nM | 7500 nM | 412 nM | 824 nM | 2320 nM | CNC(=O)Cn1cc(C)c2c1C(c1ccc(Cl)cc1)N(c1cc(C)c3nnc(C)n3c1)C2=O (stereo not drawn) [Example 127, 2-(6-(4-chlorophenyl)-5-(3,8-dimethyl-[1,2,4]triazolo[4,3-a]pyridin-6-yl)-3-methyl-4-oxo-5,6-dihydropyrrolo[3,4-b]pyrrol-1(4H)-yl)-N-methylacetamide] | 640 nM | 1129 nM | >10000 nM
4 | 45 nM | 46 nM | 27600 nM | 39.5 nM | 37.7 nM | 203 nM | Cc1cn(CCN(C)C)c2c1C(=O)N(c1cc(C)c3nnc(C)n3c1)C2c1ccc(Cl)cc1 (stereo not drawn) [Example 128, 6-(4-chlorophenyl)-5-(3,8-dimethyl-[1,2,4]triazolo[4,3-a]pyridin-6-yl)-1-(2-(dimethylamino)ethyl)-3-methyl-5,6-dihydropyrrolo[3,4-b]pyrrol-4(1H)-one] | 62.9 nM | 105.1 nM | >10000 nM
5 | 54 nM | 58 nM | 8100 nM | 96.3 nM | 188 nM | 492 nM | Cc1cn(CC(=O)N(C)C)c2c1C(=O)N(c1cc(C)c3nnc(C)n3c1)C2c1ccc(Cl)cc1 (stereo not drawn) [Example 129, 2-(6-(4-chlorophenyl)-5-(3,8-dimethyl-[1,2,4]triazolo[4,3-a]pyridin-6-yl)-3-methyl-4-oxo-5,6-dihydropyrrolo[3,4-b]pyrrol-1(4H)-yl)-N,N-dimethylacetamide] | 143 nM | 439.5 nM | >10000 nM

The next lines start with the molecule.

Row | Compound | IC50 (BRD4) | IC50 (BRD3) | IC50 (CREBBP) | GI50 (MV-4-11) | GI50 (THP-1) | GI50 (K-562) | MV-4-11 TGI (MV-4-11) | THP-1 TGI (THP-1) | K-562 TGI (K-562)
6 | COc1ncccc1-c1c(C2CC2)c2c(n1C)C(c1ccc(Cl)cc1)N(c1cc(C)c3nnc(C)n3c1)C2=O (stereo not drawn) [Example 120, 6-(4-chlorophenyl)-3-cyclopropyl-5-(3,8-dimethyl-[1,2,4]triazolo[4,3-a]pyridin-6-yl)-2-(2-methoxypyridin-3-yl)-1-methyl-5,6-dihydropyrrolo[3,4-b]pyrrol-4(1H)-one] | < 11 nM | < 11 nM | 1600 nM | 3.02 nM | 3.67 nM | 25.4 nM | 5.053 nM | 5.503 nM | >7000 nM
7 | Cc1cc(N2C(=O)c3cc(C4CCOCC4)n(C)c3C2c2ccc(Cl)cc2)cn2c(C)nnc12 (stereo not drawn) [Example 121, 6-(4-chlorophenyl)-5-(3,8-dimethyl-[1,2,4]triazolo[4,3-a]pyridin-6-yl)-1-methyl-2-(tetrahydro-2H-pyran-4-yl)-5,6-dihydropyrrolo[3,4-b]pyrrol-4(1H)-one] | 56 nM | 44 nM | 640 nM | 54.9 nM | 44.7 nM | 164 nM | 89.3 nM | 86.2 nM | >10000 nM
8 | Cc1cc(N2C(=O)c3c(C4CC4)c(C)n(C)c3C2c2ccc(Cl)cc2)cn2c(C)nnc12 (stereo not drawn) [Example 122, 6-(4-chlorophenyl)-3-cyclopropyl-5-(3,8-dimethyl-[1,2,4]triazolo[4,3-a]pyridin-6-yl)-1,2-dimethyl-5,6-dihydropyrrolo[3,4-b]pyrrol-4(1H)-one] | 12 nM | 15 nM | 4500 nM | 9.11 nM | 6.04 nM | 41 nM | 12.97 nM | 11.93 nM | >7000 nM
9 | CCOC(=O)n1c(C2=CCOCC2)c(C)c2c1C(c1ccc(Cl)cc1)N(c1cc(C)c3nnc(C)n3c1)C2=O (stereo not drawn) [Example 123, Ethyl 6-(4-chlorophenyl)-2-(3,6-dihydro-2H-pyran-4-yl)-5-(3,8-dimethyl-[1,2,4]triazolo[4,3-a]pyridin-6-yl)-3-methyl-4-oxo-5,6-dihydropyrrolo[3,4-b]pyrrole-1(4H)-carboxylate] | < 11 nM | 11 nM | 2800 nM | 5.14 nM | 6.03 nM | 37.5 nM | 9.695 nM | 13.5 nM | >10000 nM
10 | CCOC(=O)n1c(-c2cccnc2OC)c(C)c2c1C(c1ccc(Cl)cc1)N(c1cc(C)c3nnc(C)n3c1)C2=O (stereo not drawn) [Example 124, Ethyl 6-(4-chlorophenyl)-5-(3,8-dimethyl-[1,2,4]triazolo[4,3-a]pyridin-6-yl)-2-(2-methoxypyridin-3-yl)-3-methyl-4-oxo-5,6-dihydropyrrolo[3,4-b]pyrrole-1(4H)-carboxylate] | 11 nM | 14 nM | 1500 nM | 6.58 nM | 7.56 nM | 41.6 nM | 13.2 nM | 15.8 nM | >10000 nM
11 | Cc1cc(N2C(=O)c3c(C4CNC4)cn(C)c3C2c2ccc(Cl)cc2)nc2c1nnn2C (stereo not drawn) [Example 130, 3-(azetidin-3-yl)-6-(4-chlorophenyl)-5-(3,7-dimethyl-3H-[1,2,3]triazolo[4,5-b]pyridin-5-yl)-1-methyl-5,6-dihydropyrrolo[3,4-b]pyrrol-4(1H)-one] | 12 nM | 13 nM | 12800 nM | < 3 nM | 12.9 nM | 76.3 nM | 6.21 nM | 31 nM | 3500 nM
12 | Cc1cc(N2C(=O)c3ccn(C)c3C2c2ccc(Cl)cc2)nn2c(C)nnc12 (stereo not drawn) [Example 131, 6-(4-chlorophenyl)-5-(3,8-dimethyl-[1,2,4]triazolo[4,3-b]pyridazin-6-yl)-1-methyl-5,6-dihydropyrrolo[3,4-b]pyrrol-4(1H)-one] | 33 nM | 27 nM | > 37000 nM | 9.21 nM | 9.76 nM | 67.1 nM | 21.5 nM | 30.25 nM | >10000 nM
13 | CNC(=O)c1cn(C)c2c1C(=O)N(c1cc(C)c3nnc(C(F)F)n3c1)C2c1ccc(Cl)cc1 (stereo not drawn) [Example 132, 6-(4-chlorophenyl)-5-(3-(difluoromethyl)-8-methyl-[1,2,4]triazolo[4,3-a]pyridin-6-yl)-N,1-dimethyl-4-oxo-1,4,5,6-tetrahydropyrrolo[3,4-b]pyrrole-3-carboxamide] | 16 nM | 23 nM | 14100 nM | 9.57 nM | 10.1 nM | 58.6 nM | 23.15 nM | 26 nM | >10000 nM
14 | CC(=O)Nc1cn(C)c2c1C(=O)N(c1cc(C)c3nnc(C(F)F)n3c1)C2c1ccc(Cl)cc1 (stereo not drawn) [Example 133, N-(6-(4-chlorophenyl)-5-(3-(difluoromethyl)-8-methyl-[1,2,4]triazolo[4,3-a]pyridin-6-yl)-1-methyl-4-oxo-1,4,5,6-tetrahydropyrrolo[3,4-b]pyrrol-3-yl)acetamide] | 29 nM | 32 nM | 13900 nM | 24.6 nM | 29.9 nM | 92.7 nM | 49.7 nM | 74.25 nM | >10000 nM
